Experimental data taken from the supplement of paper PMC10307832.

What follows are cell lines tested with Cc1cc([C@@H](C)Nc2ccccc2C(=O)O)c2nc(N3CCOCC3)cc(=O)n2c1 [AZD6482] + O=C(CCCCCCC(=O)Nc1ccccc1)NO [Vorinostat] (partner 1 µM) (assay: relative viability (nuclei count vs DMSO), 5 days (fraction); higher = more cells survive). Settings: first compound 0.08 µM.
Summary of the method: (§1)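 Five library-drug doses in √10 steps were combined with a fixed anchor-drug dose, or a single drug was given alone, by pin tool to lung cancer cell lines in 1536-well plates the day after seeding. Nuclei were stained and counted after 5 days. Relative viability is the nuclei count in treated wells over that in vehicle wells, taken as the median of duplicate plates.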

Point of comparison: EKVX, relative viability 0.537. Against it:
- HCC-15 — higher, 0.778
- PC-14 — higher, 0.667
- LC-2-ad — higher, 0.703
- NCI-H1975 — higher, 0.638
- RERF-LC-KJ — higher, 0.648
- NCI-H650 — lower, 0.464
- PC-3 [JPC-3] — higher, 0.766

Same assay, conditions: first compound 0.253 µM

Point of comparison: PC-14, relative viability 0.716. Against it:
- HCC-15 — higher, 0.806
- EKVX — lower, 0.662
- LC-2-ad — lower, 0.702
- NCI-H1975 — lower, 0.655
- RERF-LC-KJ — lower, 0.616
- NCI-H650 — lower, 0.489
- PC-3 [JPC-3] — higher, 0.797

Same assay, conditions: first compound 0.8 µM

Point of comparison: PC-14, relative viability 0.712. Against it:
- HCC-15 — higher, 0.858
- EKVX — lower, 0.578
- LC-2-ad — higher, 0.854
- NCI-H1975 — higher, 0.743
- RERF-LC-KJ — lower, 0.557
- NCI-H650 — lower, 0.372
- PC-3 [JPC-3] — higher, 0.84

Same assay, conditions: first compound 2.53 µM

Point of comparison: HCC-15, relative viability 0.685. Against it:
- PC-14 — lower, 0.487
- EKVX — lower, 0.485
- LC-2-ad — lower, 0.605
- NCI-H1975 — lower, 0.535
- RERF-LC-KJ — lower, 0.648
- NCI-H650 — lower, 0.256
- PC-3 [JPC-3] — lower, 0.457

Same assay, conditions: first compound 8 µM

Point of comparison: NCI-H650, relative viability 0.301. Against it:
- HCC-15 — higher, 0.739
- PC-14 — higher, 0.769
- EKVX — higher, 0.361
- LC-2-ad — higher, 0.625
- NCI-H1975 — higher, 0.482
- RERF-LC-KJ — higher, 0.514
- PC-3 [JPC-3] — higher, 0.571

Each cell line was assayed with Cc1cc([C@@H](C)Nc2ccccc2C(=O)O)c2nc(N3CCOCC3)cc(=O)n2c1 [AZD6482] + CC(C)C[C@H](NC(=O)[C@H](Cc1ccccc1)NC(=O)c1cnccn1)B(O)O [Bortezomib] (partner 0.002 µM) in the same assay as above. Settings: first compound 0.08 µM.
Summary of the method: as §1

Point of comparison: PC-3 [JPC-3], relative viability 0.658. Against it:
- HCC-15 — higher, 0.926
- PC-14 — higher, 0.785
- EKVX — higher, 0.815
- LC-2-ad — higher, 1.07
- NCI-H1975 — lower, 0.345
- RERF-LC-KJ — higher, 0.825
- NCI-H650 — higher, 0.895

Same assay, conditions: first compound 0.253 µM

Point of comparison: RERF-LC-KJ, relative viability 0.907. Against it:
- HCC-15 — higher, 0.99
- PC-14 — higher, 0.917
- EKVX — higher, 0.965
- LC-2-ad — higher, 0.962
- NCI-H1975 — lower, 0.375
- PC-3 [JPC-3] — lower, 0.844

Same assay, conditions: first compound 0.8 µM

Point of comparison: PC-3 [JPC-3], relative viability 0.843. Against it:
- HCC-15 — higher, 1.08
- PC-14 — higher, 0.913
- EKVX — higher, 0.863
- LC-2-ad — higher, 1.1
- NCI-H1975 — lower, 0.384
- RERF-LC-KJ — higher, 0.895
- NCI-H650 — higher, 0.927

Same assay, conditions: first compound 2.53 µM

Point of comparison: PC-14, relative viability 0.67. Against it:
- HCC-15 — higher, 0.904
- EKVX — higher, 0.789
- LC-2-ad — higher, 0.754
- NCI-H1975 — lower, 0.323
- RERF-LC-KJ — higher, 0.921
- NCI-H650 — lower, 0.424
- PC-3 [JPC-3] — higher, 0.761

Same assay, conditions: first compound 8 µM

Point of comparison: RERF-LC-KJ, relative viability 0.865. Against it:
- HCC-15 — higher, 1.04
- PC-14 — higher, 1.02
- EKVX — lower, 0.689
- LC-2-ad — higher, 0.926
- NCI-H1975 — lower, 0.301
- NCI-H650 — lower, 0.57
- PC-3 [JPC-3] — lower, 0.713

What follows are cell lines tested with Cc1cc([C@@H](C)Nc2ccccc2C(=O)O)c2nc(N3CCOCC3)cc(=O)n2c1 [AZD6482] + Cc1nc(Nc2ncc(C(=O)Nc3c(C)cccc3Cl)s2)cc(N2CCN(CCO)CC2)n1 [Dasatinib] (partner 0.075 µM) in the same assay as above. Settings: first compound 0.08 µM.
Summary of the method: as §1

Point of comparison: RERF-LC-KJ, relative viability 0.586. Against it:
- HCC-15 — lower, 0.566
- PC-14 — lower, 0.245
- EKVX — lower, 0.465
- LC-2-ad — lower, 0.431
- NCI-H1975 — lower, 0.312
- NCI-H650 — lower, 0.446
- PC-3 [JPC-3] — higher, 0.887

Same assay, conditions: first compound 0.253 µM

Point of comparison: EKVX, relative viability 0.507. Against it:
- HCC-15 — higher, 0.545
- PC-14 — lower, 0.281
- LC-2-ad — lower, 0.357
- NCI-H1975 — lower, 0.327
- RERF-LC-KJ — higher, 0.77
- PC-3 [JPC-3] — higher, 0.959

Same assay, conditions: first compound 0.8 µM

Point of comparison: NCI-H650, relative viability 0.453. Against it:
- HCC-15 — higher, 0.594
- PC-14 — lower, 0.239
- EKVX — higher, 0.504
- LC-2-ad — higher, 0.537
- NCI-H1975 — lower, 0.389
- RERF-LC-KJ — higher, 0.762
- PC-3 [JPC-3] — higher, 0.898

Same assay, conditions: first compound 2.53 µM

Point of comparison: RERF-LC-KJ, relative viability 0.706. Against it:
- HCC-15 — lower, 0.385
- PC-14 — lower, 0.197
- EKVX — lower, 0.304
- LC-2-ad — lower, 0.306
- NCI-H1975 — lower, 0.289
- NCI-H650 — lower, 0.292
- PC-3 [JPC-3] — higher, 0.769

Same assay, conditions: first compound 8 µM

Point of comparison: PC-14, relative viability 0.16. Against it:
- HCC-15 — higher, 0.598
- EKVX — higher, 0.3
- LC-2-ad — higher, 0.282
- NCI-H1975 — higher, 0.235
- RERF-LC-KJ — higher, 0.682
- NCI-H650 — higher, 0.319
- PC-3 [JPC-3] — higher, 0.791

What follows are cell lines tested with COc1cc2nc(N3CCCN(C)CC3)nc(NC3CCN(Cc4ccccc4)CC3)c2cc1OC + Nc1nc2[nH]cc(CCc3ccc(C(=O)N[C@@H](CCC(=O)O)C(=O)O)cc3)c2c(=O)[nH]1 [Pemetrexed] (partner 0.2 µM) in the same assay as above. Settings: first compound 0.2 µM.
Summary of the method: as §1

Point of comparison: RERF-LC-KJ, relative viability 0.419. Against it:
- HCC-15 — lower, 0.216
- PC-14 — lower, 0.133
- EKVX — higher, 0.422
- LC-2-ad — lower, 0.301
- NCI-H1975 — lower, 0.289
- NCI-H650 — higher, 0.935
- PC-3 [JPC-3] — higher, 0.972

Same assay, conditions: first compound 0.6325 µM

Point of comparison: RERF-LC-KJ, relative viability 0.455. Against it:
- HCC-15 — lower, 0.225
- PC-14 — lower, 0.153
- EKVX — lower, 0.404
- LC-2-ad — lower, 0.27
- NCI-H1975 — lower, 0.301
- NCI-H650 — higher, 0.877
- PC-3 [JPC-3] — higher, 1.15

Same assay, conditions: first compound 2 µM

Point of comparison: EKVX, relative viability 0.404. Against it:
- HCC-15 — lower, 0.214
- PC-14 — lower, 0.118
- LC-2-ad — lower, 0.268
- NCI-H1975 — lower, 0.309
- RERF-LC-KJ — higher, 0.464
- NCI-H650 — higher, 0.924
- PC-3 [JPC-3] — higher, 1.11

Same assay, conditions: first compound 6.325 µM

Point of comparison: RERF-LC-KJ, relative viability 0.447. Against it:
- HCC-15 — lower, 0.208
- PC-14 — lower, 0.0737
- EKVX — lower, 0.41
- LC-2-ad — lower, 0.264
- NCI-H1975 — lower, 0.267
- NCI-H650 — higher, 0.92
- PC-3 [JPC-3] — higher, 1.01
